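These data come from cells grown in 96-well plates and exposed to compound for 48 hours at five concentrations. Abbreviation: GI50, concentration required for 50% inhibition of growth.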 Activity calls are given as the source filed them. No stated cut-off is given here; in the data, active = GI50 up to about 1.1 µM and inactive = higher.
How the values were obtained:
Assay in all cases: growth of human tumour cells (NCI), 48 h
DMS-114 = test system: DMS-114
SF-268 = test system: SF-268
RXF 393 = test system: RXF 393
SK-MEL-28 = test system: SK-MEL-28
U-251 = test system: U-251
OVCAR-5 = test system: OVCAR-5
UACC-257 = test system: UACC-257
SNB-19 = test system: SNB-19
NCI-H522 = test system: NCI-H522
SNB-78 = test system: SNB-78
HL-60 = test system: HL-60
UACC-62 = test system: UACC-62
HOP-92 = test system: HOP-92
EKVX = test system: EKVX
A549 = test system: A549
HOP-62 = test system: HOP-62
A498 = test system: A498
NCI-H460 = test system: NCI-H460
UO-31 = test system: UO-31
MOLT-4 = test system: MOLT-4
M19-MEL = test system: M19-MEL
SR = test system: SR
SK-OV-3 = test system: SK-OV-3
KM12 = test system: KM12
HCT-116 = test system: HCT-116
NCI-H226 = test system: NCI-H226
HT-29 = test system: HT-29
CCRF-CEM = test system: CCRF-CEM
OVCAR-8 = test system: OVCAR-8
IGROV-1 = test system: IGROV-1
DMS-273 = test system: DMS-273
NCI-H23 = test system: NCI-H23
TK-10 = test system: TK-10
M14 = test system: M14
ACHN = test system: ACHN
SK-MEL-2 = test system: SK-MEL-2
Malme-3M = test system: Malme-3M
DLD-1 = test system: DLD-1
CAKI-1 = test system: CAKI-1
RPMI-8226 = test system: RPMI-8226
HCT-15 = test system: HCT-15
COLO 205 = test system: COLO 205
SF-539 = test system: SF-539
K562 = test system: K562
OVCAR-4 = test system: OVCAR-4
LXFL 529 = test system: LXFL 529
XF498 = test system: XF498
SNB-75 = test system: SNB-75
HCC 2998 = test system: HCC 2998
SN12C = test system: SN12C
786-0 = test system: 786-0
SF-295 = test system: SF-295
KM-20L2 = test system: KM-20L2
SW-620 = test system: SW-620
LOX IMVI = test system: LOX IMVI
SK-MEL-5 = test system: SK-MEL-5
OVCAR-3 = test system: OVCAR-3

With COc1ccc(OC)c2c(=O)c3ccccc3[nH]c12 the GI50 (DMS-114) was 66.8 µM (inactive), the GI50 (SF-268) was 54.3 µM (inactive) and the GI50 (RXF 393) was 41.2 µM (inactive). For the same molecule, the GI50 (SK-MEL-28) was > 100 µM (inactive), the GI50 (U-251) was 54.1 µM (inactive) and the GI50 (OVCAR-5) was 70.1 µM (inactive). The GI50 (UACC-257) was 4.44 µM (inactive), the GI50 (SNB-19) was 96.6 µM (inactive) and the GI50 (NCI-H522) was 82.8 µM (inactive). For the same molecule, the GI50 (SNB-78) was 49.7 µM (inactive), the GI50 (HL-60) was 48.3 µM (inactive) and the GI50 (UACC-62) was 43.6 µM (inactive). The GI50 (HOP-92) was 37.1 µM (inactive), the GI50 (EKVX) was > 100 µM (inactive) and the GI50 (A549) was 47 µM (inactive). The GI50 (HOP-62) was > 100 µM (inactive), the GI50 (A498) was 69.3 µM (inactive) and the GI50 (NCI-H460) was 38.9 µM (inactive). The GI50 (UO-31) was 30.9 µM (inactive), the GI50 (MOLT-4) was 47.9 µM (inactive) and the GI50 (M19-MEL) was > 100 µM (inactive). The GI50 (SR) was 41.1 µM (inactive), the GI50 (SK-OV-3) was > 100 µM (inactive) and the GI50 (KM12) was 57.8 µM (inactive). For the same molecule, the GI50 (HCT-116) was 44.2 µM (inactive), the GI50 (NCI-H226) was 66.5 µM (inactive) and the GI50 (HT-29) was 45.6 µM (inactive). For the same molecule, the GI50 (CCRF-CEM) was > 100 µM (inactive), the GI50 (OVCAR-8) was 19.3 µM (inactive) and the GI50 (IGROV-1) was > 100 µM (inactive). For the same molecule, the GI50 (DMS-273) was 62.5 µM (inactive), the GI50 (NCI-H23) was 41.7 µM (inactive) and the GI50 (TK-10) was > 100 µM (inactive). The GI50 (M14) was 74.8 µM (inactive).

CCOc1ccc(NC(=O)c2c(N/N=C/c3ccc(OC)cc3)nc(=O)[nH]c2C)cc1 was tested, and the GI50 (SF-268) was > 100 µM (inactive), the GI50 (ACHN) was 60 µM (inactive) and the GI50 (SK-MEL-2) was 84.5 µM (inactive). The GI50 (Malme-3M) was 97.9 µM (inactive), the GI50 (SK-MEL-28) was > 100 µM (inactive) and the GI50 (DLD-1) was 63.5 µM (inactive). The GI50 (CAKI-1) was 44.5 µM (inactive), the GI50 (NCI-H522) was 22.9 µM (inactive) and the GI50 (SNB-78) was 57.8 µM (inactive). The GI50 (RPMI-8226) was > 100 µM (inactive), the GI50 (HL-60) was > 100 µM (inactive) and the GI50 (UACC-62) was > 100 µM (inactive). The GI50 (HOP-92) was 46.2 µM (inactive), the GI50 (HCT-15) was over 100 µM and the GI50 (HOP-62) was 38.5 µM (inactive). For the same molecule, the GI50 (A498) was 18.4 µM (inactive), the GI50 (NCI-H460) was 56.4 µM (inactive) and the GI50 (UO-31) was 49.4 µM (inactive). The GI50 (MOLT-4) was > 100 µM (inactive), the GI50 (COLO 205) was > 100 µM (inactive) and the GI50 (M19-MEL) was 85.5 µM (inactive). The GI50 (SF-539) was 37 µM (inactive), the GI50 (SR) was > 100 µM (inactive) and the GI50 (SK-OV-3) was 33.6 µM (inactive). For the same molecule, the GI50 (K562) was > 100 µM (inactive), the GI50 (OVCAR-4) was 34.7 µM (inactive) and the GI50 (LXFL 529) was > 100 µM (inactive). For the same molecule, the GI50 (HCT-116) was 38.6 µM (inactive), the GI50 (NCI-H226) was 41.6 µM (inactive) and the GI50 (CCRF-CEM) was > 100 µM (inactive). The GI50 (XF498) was > 100 µM (inactive), the GI50 (SNB-75) was 37.8 µM (inactive) and the GI50 (IGROV-1) was 51.5 µM (inactive). The GI50 (HCC 2998) was > 100 µM (inactive), the GI50 (DMS-273) was 33.7 µM (inactive) and the GI50 (NCI-H23) was 65.8 µM (inactive). For the same molecule, the GI50 (M14) was 45.4 µM (inactive), the GI50 (SN12C) was 76 µM (inactive) and the GI50 (786-0) was 52.2 µM (inactive).

Nc1ccc(C(=O)CC2(O)C(=O)Nc3ccccc32)cc1 (centres undefined) was tested, and the GI50 (DMS-114) was > 100 µM (inactive), the GI50 (SF-268) was > 100 µM (inactive) and the GI50 (ACHN) was > 100 µM (inactive). The GI50 (SF-295) was > 100 µM (inactive), the GI50 (SK-MEL-2) was > 100 µM (inactive) and the GI50 (Malme-3M) was > 100 µM (inactive). The GI50 (RXF 393) was > 100 µM (inactive), the GI50 (SK-MEL-28) was > 100 µM (inactive) and the GI50 (OVCAR-5) was > 100 µM (inactive). The GI50 (DLD-1) was > 100 µM (inactive), the GI50 (UACC-257) was > 100 µM (inactive) and the GI50 (CAKI-1) was > 100 µM (inactive). The GI50 (SNB-19) was > 100 µM (inactive), the GI50 (NCI-H522) was 29.7 µM (inactive) and the GI50 (SNB-78) was > 100 µM (inactive). The GI50 (KM-20L2) was > 100 µM (inactive), the GI50 (RPMI-8226) was > 100 µM (inactive) and the GI50 (HL-60) was 38.9 µM (inactive). The GI50 (UACC-62) was > 100 µM (inactive), the GI50 (HOP-92) was > 100 µM (inactive) and the GI50 (HCT-15) was over 100 µM. The GI50 (SW-620) was > 100 µM (inactive), the GI50 (EKVX) was > 100 µM (inactive) and the GI50 (A549) was > 100 µM (inactive). For the same molecule, the GI50 (A498) was > 100 µM (inactive), the GI50 (NCI-H460) was > 100 µM (inactive) and the GI50 (UO-31) was > 100 µM (inactive). For the same molecule, the GI50 (MOLT-4) was > 100 µM (inactive), the GI50 (COLO 205) was > 100 µM (inactive) and the GI50 (M19-MEL) was > 100 µM (inactive). For the same molecule, the GI50 (SF-539) was > 100 µM (inactive), the GI50 (SK-OV-3) was > 100 µM (inactive) and the GI50 (K562) was > 100 µM (inactive). For the same molecule, the GI50 (OVCAR-4) was > 100 µM (inactive), the GI50 (LXFL 529) was > 100 µM (inactive) and the GI50 (HCT-116) was > 100 µM (inactive). The GI50 (NCI-H226) was > 100 µM (inactive), the GI50 (LOX IMVI) was > 100 µM (inactive) and the GI50 (HT-29) was > 100 µM (inactive). For the same molecule, the GI50 (OVCAR-8) was > 100 µM (inactive), the GI50 (XF498) was > 100 µM (inactive) and the GI50 (SNB-75) was 92.9 µM (inactive). For the same molecule, the GI50 (SK-MEL-5) was > 100 µM (inactive), the GI50 (IGROV-1) was > 100 µM (inactive) and the GI50 (OVCAR-3) was > 100 µM (inactive). For the same molecule, the GI50 (DMS-273) was > 100 µM (inactive), the GI50 (NCI-H23) was > 100 µM (inactive) and the GI50 (TK-10) was > 100 µM (inactive). For the same molecule, the GI50 (M14) was > 100 µM (inactive), the GI50 (SN12C) was > 100 µM (inactive) and the GI50 (786-0) was > 100 µM (inactive).

With O=c1n(CC2CS2)c2ccccc2n1CC1CS1 (centres undefined) the GI50 (DMS-114) was 30.5 µM (inactive), the GI50 (SF-268) was 57.7 µM (inactive) and the GI50 (ACHN) was 45.7 µM (inactive). The GI50 (SK-MEL-2) was 28.9 µM (inactive), the GI50 (Malme-3M) was 18.2 µM (inactive) and the GI50 (CAKI-1) was 42.9 µM (inactive). The GI50 (NCI-H522) was 30.8 µM (inactive), the GI50 (RPMI-8226) was 27.2 µM (inactive) and the GI50 (HL-60) was 39.2 µM (inactive). The GI50 (UACC-62) was 33.3 µM (inactive), the GI50 (HOP-92) was 42.3 µM (inactive) and the GI50 (HCT-15) was 42.7 µM. For the same molecule, the GI50 (SW-620) was > 10 µM (inactive), the GI50 (EKVX) was > 100 µM (inactive) and the GI50 (HOP-62) was 39.5 µM (inactive). The GI50 (MOLT-4) was 18.8 µM (inactive), the GI50 (COLO 205) was 62.4 µM (inactive) and the GI50 (M19-MEL) was 42.8 µM (inactive). For the same molecule, the GI50 (SR) was 45.5 µM (inactive), the GI50 (SK-OV-3) was > 100 µM (inactive) and the GI50 (K562) was 33.8 µM (inactive). The GI50 (OVCAR-4) was 41.7 µM (inactive), the GI50 (KM12) was 35.3 µM (inactive) and the GI50 (LXFL 529) was 31.2 µM (inactive). The GI50 (HCT-116) was 25.1 µM (inactive), the GI50 (LOX IMVI) was 30.2 µM (inactive) and the GI50 (CCRF-CEM) was 21 µM (inactive). The GI50 (XF498) was > 100 µM (inactive), the GI50 (SNB-75) was 65.3 µM (inactive) and the GI50 (IGROV-1) was 39.2 µM (inactive). The GI50 (OVCAR-3) was 43.8 µM (inactive), the GI50 (HCC 2998) was 82.8 µM (inactive) and the GI50 (DMS-273) was 31.9 µM (inactive). The GI50 (M14) was 35.2 µM (inactive) and the GI50 (SN12C) was 87.7 µM (inactive).
